Data reported in patent US9346786B2, “Pyrrolidine compounds” (Hoffmann-La Roche Inc., priority 2009, dated 2016).

molecular target: recombinant human NK3 receptor (Homo sapiens (Human), UniProt P29371); assay: biochemical; format: binding; conditions: [3H]SR142801, membranes of HEK293 cells transiently expressing recombinant human NK3 receptor; read-out: Data Ki (hNK-3 receptor affinity)
Sequence (P29371 whole entry): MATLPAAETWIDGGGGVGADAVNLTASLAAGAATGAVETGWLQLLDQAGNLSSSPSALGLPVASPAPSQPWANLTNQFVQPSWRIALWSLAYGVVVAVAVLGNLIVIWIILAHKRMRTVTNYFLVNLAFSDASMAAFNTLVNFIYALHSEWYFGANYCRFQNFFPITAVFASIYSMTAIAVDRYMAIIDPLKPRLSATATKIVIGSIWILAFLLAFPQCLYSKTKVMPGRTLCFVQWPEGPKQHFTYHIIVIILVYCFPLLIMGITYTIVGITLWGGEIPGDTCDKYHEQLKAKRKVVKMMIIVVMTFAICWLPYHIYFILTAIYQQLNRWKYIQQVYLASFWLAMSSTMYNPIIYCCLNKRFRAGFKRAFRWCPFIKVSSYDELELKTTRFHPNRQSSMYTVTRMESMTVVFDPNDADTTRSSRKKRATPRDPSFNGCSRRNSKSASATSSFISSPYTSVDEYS

Compound	Ki
CCN(C(=O)Oc1ccc(F)cc1)[C@@H]1CN(C(=O)C2CCN(c3ccc(C(F)(F)F)cn3)CC2)C[C@H]1c1ccc(Cl)c(Cl)c1 [Example 114, [(3S,4R)-4-(3,4-Dichloro-phenyl)-1-(5′-trifluoromethyl-3,4,5,6-tetrahydro-2H-[1,2′]bipyridinyl-4-carbonyl)-pyrrolidin-3-yl]-ethyl-carbamic acid 4-fluoro-phenyl ester]	1.6 nM
CCN(C(=O)Oc1ccc(F)cc1)[C@@H]1CN(C(=O)C2CCN(C(=O)C3CCC3)CC2)C[C@H]1c1ccc(Cl)cc1 [Example 87, [(3S,4R)-4-(4-Chloro-phenyl)-1-(1-cyclobutanecarbonyl-piperidine-4-carbonyl)-pyrrolidin-3-yl]-ethyl-carbamic acid 4-fluoro-phenyl ester]	2.1 nM
CCN(C(=O)Oc1ccc(F)cc1)[C@@H]1CN(C(=O)C2CCN(C(=O)c3ccc(F)cn3)CC2)C[C@H]1c1ccc(Cl)cc1 [Example 102, {(3S,4R)-4-(4-Chloro-phenyl)-1-[1-(5-fluoro-pyridine-2-carbonyl)-piperidine-4-carbonyl]-pyrrolidin-3-yl}-ethyl-carbamic acid 4-fluoro-phenyl ester]	8.2 nM
CCN(C(=O)Oc1ccc(F)cc1)[C@@H]1CN(C(=O)C2CCN(c3ncc(C#N)cn3)CC2)C[C@H]1c1ccc(Cl)cc1 [Example 13, {(3S,4R)-4-(4-Chloro-phenyl)-1-[1-(5-cyano-pyrimidin-2-yl)-piperidine-4-carbonyl]-pyrrolidin-3-yl}-ethyl-carbamic acid 4-fluoro-phenyl ester]	8 nM
CCN(C(=O)Oc1ccc(F)cc1)[C@H]1CN(C(=O)C2CCN(c3ccc(C(C)=O)cn3)CC2)C[C@@H]1c1ccc(Cl)cc1 [Example 8, [(3R,4S)-1-(5′-Acetyl-3,4,5,6-tetrahydro-2H-[1,2′]bipyridinyl-4-carbonyl)-4-(4-chloro-phenyl)-pyrrolidin-3-yl]-ethyl-carbamic acid 4-fluoro-phenyl ester]	55 nM
CC(C)N(C(=O)Oc1ccc(F)cc1)[C@@H]1CN(C(=O)C2CCN(c3ccc(C#N)cn3)CC2)C[C@H]1c1ccc(Cl)cc1 [Example 23, [(3S,4R)-4-(4-Chloro-phenyl)-1-(5′-cyano-3,4,5,6-tetrahydro-2H-[1,2′]bipyridinyl-4-carbonyl)-pyrrolidin-3-yl]-isopropyl-carbamic acid 4-fluoro-phenyl ester]	21 nM
CCN(C(=O)Oc1ccc(F)cc1)[C@@H]1CN(C(=O)C2CCN(C(=O)C3CC(OC)C3)CC2)C[C@H]1c1ccc(Cl)cc1 (stereo partly drawn) [Example 91, {(3S,4R)-4-(4-Chloro-phenyl)-1-[1-(3-methoxy-cyclobutanecarbonyl)-piperidine-4-carbonyl]-pyrrolidin-3-yl}-ethyl-carbamic acid 4-fluoro-phenyl ester]	6.5 nM
CCN(C(=O)Oc1ccc(F)cc1)[C@@H]1CN(C(=O)C2CCN(c3ccc(C(C)=O)cn3)CC2)C[C@H]1c1ccc(Cl)c(F)c1 [Example 59, [(3S,4R)-1-(5′-Acetyl-3,4,5,6-tetrahydro-2H-[1,2′]bipyridinyl-4-carbonyl)-4-(4-chloro-3-fluoro-phenyl)-pyrrolidin-3-yl]-ethyl-carbamic acid 4-fluoro-phenyl ester]	0.5 nM
CC(C)N(C(=O)Oc1ccc(F)cc1)[C@@H]1CN(C(=O)C2CCN(c3cnc(C#N)cn3)CC2)C[C@H]1c1ccc(Cl)cc1 [Example 27, {(3S,4R)-4-(4-Chloro-phenyl)-1-[1-(5-cyano-pyrazin-2-yl)-piperidine-4-carbonyl]-pyrrolidin-3-yl}-isopropyl-carbamic acid 4-fluoro-phenyl ester]	47 nM
CCN(C(=O)Oc1ccc(F)cc1)[C@@H]1CN(C(=O)C2CCN(C(=O)C3(C(F)(F)F)CCC3)CC2)C[C@H]1c1ccc(Cl)c(F)c1 [Example 68, {(3S,4R)-4-(4-Chloro-3-fluoro-phenyl)-1-[1-(1-trifluoromethyl-cyclobutanecarbonyl)-piperidine-4-carbonyl]-pyrrolidin-3-yl}-ethyl-carbamic acid 4-fluoro-phenyl ester]	2 nM
CCN(C(=O)Oc1ccc(F)cc1)[C@@H]1CN(C(=O)C2CCN(C(=O)C3(C#N)CC3)CC2)C[C@H]1c1ccc(Cl)cc1 [Example 94, {(3S,4R)-4-(4-Chloro-phenyl)-1-[1-(1-cyano-cyclopropanecarbonyl)-piperidine-4-carbonyl]-pyrrolidin-3-yl}-ethyl-carbamic acid 4-fluoro-phenyl ester]	7.8 nM
CCN(C(=O)Oc1ccc(F)cc1)[C@@H]1CN(C(=O)C2CCN(C(=O)C3(C)COC3)CC2)C[C@H]1c1ccc(Cl)c(F)c1 [Example 65, {(3S,4R)-4-(4-Chloro-3-fluoro-phenyl)-1-[1-(3-methyl-oxetane-3-carbonyl)-piperidine-4-carbonyl]-pyrrolidin-3-yl}-ethyl-carbamic acid 4-fluoro-phenyl ester]	3 nM
CCN(C(=O)Oc1ccc(F)cc1)[C@@H]1CN(C(=O)C2CCN(c3ccc(S(C)(=O)=O)cn3)CC2)C[C@H]1c1ccc(F)c(F)c1 [Example 64, [(3S,4R)-4-(3,4-Difluoro-phenyl)-1-(5′-methanesulfonyl-3,4,5,6-tetrahydro-2H-[1,2′]bipyridinyl-4-carbonyl)-pyrrolidin-3-yl]-ethyl-carbamic acid 4-fluoro-phenyl ester]	5 nM
CC1(C(=O)N2CCC(C(=O)N3C[C@@H](N(C(=O)Oc4ccc(F)cc4)C4CC4)[C@H](c4ccc(Cl)c(Cl)c4)C3)CC2)CC1 (racemic) [Example 4, rac-{(3S,4R)-4-(3,4-Dichloro-phenyl)-1-[1-(1-methyl-cyclopropanecarbonyl)-piperidine-4-carbonyl]-pyrrolidin-3-yl}-cyclopropyl-carbamic acid 4-fluoro-phenyl ester]	10 nM
CCN(C(=O)Oc1ccccc1F)[C@@H]1CN(C(=O)C2CCN(C(=O)C3(C#N)CC3)CC2)C[C@H]1c1ccc(Cl)cc1 [Example 85, {(3S,4R)-4-(4-Chloro-phenyl)-1-[1-(1-cyano-cyclopropanecarbonyl)-piperidine-4-carbonyl]-pyrrolidin-3-yl}-ethyl-carbamic acid 2-fluoro-phenyl ester]	23.3 nM
CCN(C(=O)Oc1ccc(F)cc1)[C@@H]1CN(C(=O)C2CCN(C(C)=O)CC2)C[C@H]1c1ccc(Cl)cc1 [Example 82, [(3S,4R)-1-(1-Acetyl-piperidine-4-carbonyl)-4-(4-chloro-phenyl)-pyrrolidin-3-yl]-ethyl-carbamic acid 4-fluoro-phenyl ester]	8.2 nM
CCN(C(=O)Oc1ccc(F)cc1)[C@@H]1CN(C(=O)C2CCN(c3cnc(C#N)cn3)CC2)C[C@H]1c1ccc(Cl)c(F)c1 [Example 61, {(3S,4R)-4-(4-Chloro-3-fluoro-phenyl)-1-[1-(5-cyano-pyrazin-2-yl)-piperidine-4-carbonyl]-pyrrolidin-3-yl}-ethyl-carbamic acid 4-fluoro-phenyl ester]	0.8 nM

same assay, conditions: read-out: Data Ki (hNK-3 receptor affinity)

Compound	Ki
CCN(C(=O)Oc1ccc(F)cc1)[C@@H]1CN(C(=O)C2CCN(C(=O)C3CC(F)C3)CC2)C[C@H]1c1ccc(Cl)cc1 (stereo partly drawn) [Example 89, {(3S,4R)-4-(4-Chloro-phenyl)-1-[1-(3-fluoro-cyclobutanecarbonyl)-piperidine-4-carbonyl]-pyrrolidin-3-yl}-ethyl-carbamic acid 4-fluoro-phenyl ester]	3.3 nM
CCN(C(=O)Oc1ccc(F)cc1)[C@@H]1CN(C(=O)C2CCN(c3cc(C#N)ccn3)CC2)C[C@H]1c1ccc(Cl)cc1 [Example 15, [(3S,4R)-4-(4-Chloro-phenyl)-1-(4′-cyano-3,4,5,6-tetrahydro-2H-[1,2′]bipyridinyl-4-carbonyl)-pyrrolidin-3-yl]-ethyl-carbamic acid 4-fluoro-phenyl ester]	8 nM
O=C(C1CCN(c2ccc(C(F)(F)F)cn2)CC1)N1C[C@@H](N(C(=O)Oc2ccc(F)cc2)C2CC2)[C@H](c2ccc(Cl)cc2)C1 [Example 31, [(3S,4R)-4-(4-Chloro-phenyl)-1-(5′-trifluoromethyl-3,4,5,6-tetrahydro-2H-[1,2′]bipyridinyl-4-carbonyl)-pyrrolidin-3-yl]-cyclopropyl-carbamic acid 4-fluoro-phenyl ester]	57 nM
CCN(C(=O)Oc1ccc(F)cc1)[C@@H]1CN(C(=O)C2CCN(C(=O)C3CCC(=O)NC3)CC2)C[C@H]1c1ccc(Cl)cc1 (stereo partly drawn) [Example 103, {(3S,4R)-4-(4-Chloro-phenyl)-1-[1-(6-oxo-piperidine-3-carbonyl)-piperidine-4-carbonyl]-pyrrolidin-3-yl}-ethyl-carbamic acid 4-fluoro-phenyl ester]	32.6 nM
CCN(C(=O)Oc1ccc(F)cc1)[C@@H]1CN(C(=O)C2CCN(C(=O)C3(C(F)(F)F)CC3)CC2)C[C@H]1c1ccc(Cl)c(F)c1 [Example 71, {(3S,4R)-4-(4-Chloro-3-fluoro-phenyl)-1-[1-(1-trifluoromethyl-cyclopropanecarbonyl)-piperidine-4-carbonyl]-pyrrolidin-3-yl}-ethyl-carbamic acid 4-fluoro-phenyl ester]	4 nM
CCN(C(=O)Oc1ccc(F)cc1)[C@@H]1CN(C(=O)C2CCN(C(=O)C3CCC(=O)N(C(C)C)C3)CC2)C[C@H]1c1ccc(Cl)cc1 (stereo partly drawn) [Example 104, {(3S,4R)-4-(4-Chloro-phenyl)-1-[1-(1-isopropyl-6-oxo-piperidine-3-carbonyl)-piperidine-4-carbonyl]-pyrrolidin-3-yl}-ethyl-carbamic acid 4-fluoro-phenyl ester]	17.6 nM
CCN(C(=O)Oc1ccccc1F)[C@@H]1CN(C(=O)C2CCN(C(=O)c3ccc(C(F)(F)F)cn3)CC2)C[C@H]1c1ccc(Cl)cc1 [Example 86, {(3S,4R)-4-(4-Chloro-phenyl)-1-[1-(5-trifluoromethyl-pyridine-2-carbonyl)-piperidine-4-carbonyl]-pyrrolidin-3-yl}-ethyl-carbamic acid 2-fluoro-phenyl ester]	70.7 nM
CCN(C(=O)Oc1ccc(F)cc1)[C@H]1CN(C(=O)C2CCN(C(=O)C3(C)CC3)CC2)C[C@@H]1c1ccc(Cl)c(Cl)c1 [Example 6, {(3R,4S)-4-(3,4-Dichloro-phenyl)-1-[1-(1-methyl-cyclopropanecarbonyl)-piperidine-4-carbonyl]-pyrrolidin-3-yl}-ethyl-carbamic acid 4-fluoro-phenyl ester]	62 nM
